In patent US20180169100A1, “Cancer Stem Cell Targeting Compounds” (Godavari Biorefineries Limited, priority 2014, published 2018):

Tests used:
Type in all cases: cell-based
[1] = system: Bu25tk; test: In vitro colorimetric cell death assay (MTT); settings: Bu25tk cervical cancer cell line, 48 hours with compound, read-out: IC 50 Value
Procedure: (§1) For assessing cell viability in vitro colorimetric cell death assay was carried out where the cells were grown in two-dimensional surface as follows. Cancer cells with plating efficiency as mentioned herein below for respective cell lines were plated in a 96 well plate. The plate was incubated for 24 hours in a 5% CO2 atmosphere at 37 degrees Celsius, a range of concentrations from 10^−3 M to 10^−6 M of the compound Ethyl-5,6-dimethyl-4-(piperidin-1-yl)thieno[2,3-d]pyrimidine was added to the wells, the plates were incubated further for 48 hours in a 5% CO2 atmosphere, the plate was centrifuged twice at 3000 rpm for 3 minutes, the supernatant fluid was discarded, 100 uL of 0.5 mg/mL 3-(4,5-Dimethylthiazol-2-yl)-2,5-Diphenyltetrazolium Bromide (MTT) solution was added and the plate was incubated for 4 hours in a 5% CO2 atmosphere at 37 degrees Celsius. The plate was then centrifuged twice at 3000 rpm for 3 minutes, supernatant was aspirated very carefully, 200 uL Dimethyl sulfoxide (DMSO) was added to each well to solubilize MTT crystals and mixed well by shaking the plate, the plate was incubated for 10 minutes in a 5% CO2 atmosphere at 37 degrees Celsius, the plate was placed on the shaker of an ELISA plate reader and the absorbance at 570 nm was measured, the percentage of viable cells remaining was calculated by first subtracting the background absorbance then comparing to the absorbance of a non-drug-treated cell sample, and the results were plotted on a graph to determine the IC50 for the compound Ethyl-5,6-dimethyl-4-(piperidin-1-yl)thieno[2,3-d]pyrimidine which was calculated by regression analysis.

[2] = system: Colo320; test: In vitro colorimetric cell death assay (MTT); settings: Colo320 colon cancer cell line, 48 hours with compound, read-out: IC 50 Value
Procedure: as §1

[3] = system: DU145; test: In vitro colorimetric cell death assay (MTT); settings: DU145 prostate cancer cell line, 48 hours with compound, read-out: IC 50 Value
Procedure: as §1

[4] = system: HeLa; test: In vitro colorimetric cell death assay (MTT); settings: HeLa cervical cancer cell line, 48 hours with compound, read-out: IC 50 Value
Procedure: as §1

[5] = system: Hep3B; test: In vitro colorimetric cell death assay (MTT); settings: Hep3B hepatic cancer cell line, 48 hours with compound, read-out: IC 50 Value
Procedure: as §1

[6] = system: L929; test: In vitro colorimetric cell death assay (MTT); settings: L929 fibroblast cancer cell line, 48 hours with compound, read-out: IC 50 Value
Procedure: as §1

[7] = system: LNCaP; test: In vitro colorimetric cell death assay (MTT); settings: LNCaP prostate cancer cell line, 48 hours with compound, read-out: IC 50 Value
Procedure: as §1

[8] = system: MCF-7; test: In vitro colorimetric cell death assay (MTT); settings: MCF-7 breast cancer cell line, 48 hours with compound, read-out: IC 50 Value
Procedure: as §1

[9] = system: MDAMB231; test: In vitro colorimetric cell death assay (MTT); settings: MDAMB231 breast cancer cell line, 48 hours with compound, read-out: IC 50 Value
Procedure: as §1

[10] = system: PC3; test: In vitro colorimetric cell death assay (MTT); settings: PC3 prostate cancer cell line, 48 hours with compound, read-out: IC 50 Value
Procedure: as §1

[11] = system: SiHa; test: In vitro colorimetric cell death assay (MTT); settings: SiHa cervical cancer cell line, 48 hours with compound, read-out: IC 50 Value
Procedure: as §1

[12] = system: T47D; test: In vitro colorimetric cell death assay (MTT); settings: T47D breast cancer cell line, 48 hours with compound, read-out: IC 50 Value
Procedure: as §1

[13] = system: primary spheres of DU145; test: 3D Primary Sphere Assay; settings: GC 49(±5), GCD 41(±4)
Procedure: (§2) The ability of cancer stem cells to form spheres in a serum free media was determined by 3D Primary Sphere Assay, where the spheres were in a suspended form. Through this assay the potency of the compound Ethyl-5,6-dimethyl-4-(piperidin-1-yl)thieno[2,3-d]pyrimidine to kill cancer stem cells in comparison to the standard chemotherapeutic drug such as Cisplatin was evaluated as follows. The Cells were grown in three dimensions on a plastic substrate, harvested in suspension in serum-free media, then the cells in the sample were trypsinised and a single cell suspension was formed by passing through a cell strainer. The cells were diluted according to the predetermined plating efficiency for the cell line being studied by suspending the cells in stem cell culture medium. 100 uL of this suspension was added into each well of a 96 well suspension plate, and the plate was incubated at 37 degrees Celsius in 5% CO2 atmosphere for 24 hours, then 2 uL of appropriate concentrations of the drugs were added into each respective well along with 100 uL of stem cell culture medium, and the plates incubated at 37 degrees Celsius under 5% CO2 atmosphere for 72 hours. 2.5 uL of the appropriate drug concentration was added to each respective well along with 50 uL of stem cell culture medium and the plates were incubated at 37 degrees Celsius under 5% CO2 atmosphere for 72 hours. 3 uL of the appropriate concentration of the compound as mentioned below was added to each respective well along with 50 uL of stem cell culture medium, incubated at 37 degrees Celsius under 5% CO2 atmosphere for 72 hours, the spheres formed were observed under a microscope, counted and scored by size. Results of the in vitro 3D sphere forming stem cell assay were set forth in a tabular manner. […] GC refers to a growth control performed in the absence of drug or solvent (DMSO). GCD refers to a growth control performed in the absence of drug, but in the presence of DMSO.

[14] = system: primary spheres of MDA MB231; test: 3D Primary Sphere Assay; settings: GC 92(±7), GCD 83(±6)
Procedure: as §2

[15] = system: primary spheres of PC3; test: 3D Primary Sphere Assay; settings: GC 120(±10), GCD 103(±9)
Procedure: as §2

[16] = system: CD44 population of PC3 cells; test: Flow cytometry study, CD44/CD24 staining; settings: PC3 cells exposed to IC25 drug conc. for 48 hrs; untreated 85.61% cells CD44
Procedure: For Flow cytometry assay the PC3 cancer cells (0.35×106) were cultured in Dulbecco's Modified Eagle's medium (DMEM) with 10% Fetal Bovine Serum (F.B.S) in 60 mm tissue culture plates for 24 hrs in 5% CO2 at 37° C. Cells were then exposed to IC25 drug conc. of Cisplatin in duplicates. Similarly other sets of cells were treated with IC25 drug conc. of Ethyl-5,6-dimethyl-4-(piperidin-1-yl)thieno[2,3-d]pyrimidine for 48 hrs. and incubated in 5% CO2 at 37° C. for 48 hrs. Appropriate controls that is growth control (cells+DMEM medium) and solvent control (cells+control DMEM medium+DMSO) and medium control (DMEM) were also kept along with the experimental sets. After 48 hrs the cells were observed under the microscope, trypsinised, washed with Dulbecco's phosphate-buffered saline (D.P.B.S.) 50 μl of cells were taken for each set and 5 μl of each of the CD44-PE labeled and CD24-FITC labeled antibodies were added. The sets were incubated for 45 mins at 4° C. for proper binding of antibodies. After incubation the cells were washed with 200 μl of D.P.B.S by centrifugation. The supernatant was discarded and the cells were finally suspended in 300 μl of FACS buffer (4% Fetal Bovine Serum in D.P.B.S). Samples were kept at 4° C. in dark till they were acquired on FACS. Acquisition was done on BD-FACS Accuri C6.

[17] = system: CD44 population of DU145 cells; test: Flow cytometry study, CD44/CD24 staining; settings: DU145 cells exposed to IC25 drug conc. for 48 hrs; untreated 70.18% cells CD44

N.N.[Cl][Pt][Cl] [Cisplatin]
IC50 [1]: 59.3 µM | IC50 [2]: 38.3 µM | IC50 [3]: 31.6 µM | IC50 [4]: 33.9 µM | IC50 [5]: 37.6 µM | IC50 [6]: 29 µM | IC50 [7]: 52.5 µM | IC50 [8]: 29.2 µM | IC50 [9]: 48.4 µM | IC50 [10]: 11.2 µM | IC50 [11]: 35.5 µM | IC50 [12]: 58.9 µM | total number of spheres formed ([13]; DU145, final conc. 1.25 μM): 48(±5) | total number of spheres formed ([13]; DU145, final conc. 12.5 μM): 41(±5) | total number of spheres formed ([13]; DU145, final conc. 125 μM): 23(±4) | total number of spheres formed ([13]; DU145, final conc. 1250 μM): 12(±3) | total number of spheres formed ([14]; MDA MB231, final conc. 1.25 μM): 76(±8) | total number of spheres formed ([14]; MDA MB231, final conc. 12.5 μM): 52(±6) | total number of spheres formed ([14]; MDA MB231, final conc. 125 μM): 39(±3) | total number of spheres formed ([14]; MDA MB231): 25(±5) | total number of spheres formed ([15]; PC3, final conc. 1.25 μM): 109(±6) | total number of spheres formed ([15]; PC3, final conc. 12.5 μM): 107(±9) | total number of spheres formed ([15]; PC3, final conc. 125 μM): 88(±6) | total number of spheres formed ([15]; PC3): 74(±7) | effect on CD44 population [16]: did not have much effect | effect on CD44 population [17]: did not have much effect
